Measured values as given in US9745305B2, “Modulators of methyl modifying enzymes, compositions and uses thereof” (Constellation Pharmaceuticals, Inc., priority 2013, dated 2017).

Tests used:
Y641N EZH2 = Y641N EZH2 (Homo sapiens, UniProt Q15910, Y641N); test: Assay for Y641N EZH2 (as the EZH2 assay, H3K27Me2 oligonucleosomes as substrate); assay type: biochemical; conditions: Y641N EZH2 mutant, reconstituted H3K27Me2 oligonucleosomes as substrate
In short: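 rPRC2 (2 nM EZH2) with 0.2 μM reconstituted H3K27Me2 biotinylated oligonucleosomes, 3.6 μM H3K27me3 peptide, 0.2 μM ^3H SAM in Tris pH 8.5; compounds (80 to 0.16 μM, 2-fold) pre-incubated 20 min, reaction 60 min, SAH/EDTA quench. Tritiated product captured on streptavidin plates, scintillation counted; IC50 from 4-parameter fit.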

EZH2 = EZH2 (Homo sapiens, UniProt Q15910); test: EZH2 Assay (3H SAM methyl transfer, rPRC2, FlashPlate); assay type: biochemical; conditions: rPRC2, biotinylated oligonucleosomes, 0.2 μM 3H SAM, 2 nM EZH2
EZH2, sequence (Q15910 whole entry): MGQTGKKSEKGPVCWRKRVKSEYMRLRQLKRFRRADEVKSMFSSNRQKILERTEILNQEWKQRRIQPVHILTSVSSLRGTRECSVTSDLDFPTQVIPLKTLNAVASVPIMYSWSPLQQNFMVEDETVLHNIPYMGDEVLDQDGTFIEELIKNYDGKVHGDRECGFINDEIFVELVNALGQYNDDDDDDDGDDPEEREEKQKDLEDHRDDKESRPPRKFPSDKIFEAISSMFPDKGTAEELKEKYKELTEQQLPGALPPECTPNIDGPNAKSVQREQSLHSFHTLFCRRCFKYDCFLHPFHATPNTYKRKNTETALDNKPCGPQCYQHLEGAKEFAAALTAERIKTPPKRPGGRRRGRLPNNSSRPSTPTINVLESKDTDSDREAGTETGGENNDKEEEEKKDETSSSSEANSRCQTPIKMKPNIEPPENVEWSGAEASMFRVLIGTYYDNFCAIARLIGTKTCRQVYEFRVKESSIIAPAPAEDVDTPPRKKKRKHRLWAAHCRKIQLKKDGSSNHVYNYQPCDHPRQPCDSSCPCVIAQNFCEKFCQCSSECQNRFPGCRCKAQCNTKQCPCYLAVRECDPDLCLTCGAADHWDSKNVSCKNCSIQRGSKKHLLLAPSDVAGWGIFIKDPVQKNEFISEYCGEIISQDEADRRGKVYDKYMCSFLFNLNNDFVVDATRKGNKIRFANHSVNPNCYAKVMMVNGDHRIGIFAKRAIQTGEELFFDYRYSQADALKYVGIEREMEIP
EZH2, sequence (O75530 whole entry partner): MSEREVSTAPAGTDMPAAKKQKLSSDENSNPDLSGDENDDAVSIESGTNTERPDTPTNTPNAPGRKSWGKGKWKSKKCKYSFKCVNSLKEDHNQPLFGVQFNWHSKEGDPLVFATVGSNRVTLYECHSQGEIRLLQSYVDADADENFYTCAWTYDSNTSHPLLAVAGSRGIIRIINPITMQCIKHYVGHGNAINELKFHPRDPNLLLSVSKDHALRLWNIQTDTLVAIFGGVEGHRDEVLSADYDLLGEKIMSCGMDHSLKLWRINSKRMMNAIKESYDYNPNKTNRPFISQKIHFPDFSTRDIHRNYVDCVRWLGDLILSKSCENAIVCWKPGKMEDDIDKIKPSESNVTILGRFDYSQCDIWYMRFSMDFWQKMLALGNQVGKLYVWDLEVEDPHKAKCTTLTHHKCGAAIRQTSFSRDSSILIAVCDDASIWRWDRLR
EZH2, sequence (Q15022 whole entry partner): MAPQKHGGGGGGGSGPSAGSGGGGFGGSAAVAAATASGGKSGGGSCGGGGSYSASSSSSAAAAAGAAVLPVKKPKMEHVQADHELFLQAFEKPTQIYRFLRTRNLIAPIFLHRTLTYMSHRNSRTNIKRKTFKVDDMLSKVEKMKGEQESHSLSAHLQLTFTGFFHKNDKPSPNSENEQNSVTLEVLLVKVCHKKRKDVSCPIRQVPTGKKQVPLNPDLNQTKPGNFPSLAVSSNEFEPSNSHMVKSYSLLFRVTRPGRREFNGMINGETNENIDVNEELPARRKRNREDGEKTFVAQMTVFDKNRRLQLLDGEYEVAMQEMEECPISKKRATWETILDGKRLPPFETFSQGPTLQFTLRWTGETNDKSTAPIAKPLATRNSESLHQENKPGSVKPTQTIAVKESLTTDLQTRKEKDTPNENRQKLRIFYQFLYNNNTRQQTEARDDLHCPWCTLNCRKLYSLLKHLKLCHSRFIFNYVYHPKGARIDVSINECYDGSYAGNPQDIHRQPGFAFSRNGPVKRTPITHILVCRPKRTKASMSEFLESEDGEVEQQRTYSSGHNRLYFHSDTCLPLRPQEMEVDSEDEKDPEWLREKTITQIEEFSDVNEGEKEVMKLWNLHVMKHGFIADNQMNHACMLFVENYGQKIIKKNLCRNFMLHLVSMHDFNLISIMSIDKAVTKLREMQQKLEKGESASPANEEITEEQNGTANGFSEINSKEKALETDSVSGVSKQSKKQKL
In short: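 rPRC2 (2 nM EZH2) was preincubated 20 min with compound (80 to 0.16 μM, 10 points), then reacted 60 min with 0.2 μM ³H-SAM, 0.2 μM biotinylated oligonucleosomes and 3.6 μM H3K27me3 peptide at pH 8.5. Methylated product was captured on SAV FlashPlates and counted, and IC50 came from a 4-parameter fit.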

[1] = tested on: H3K27me3 mark in Hela cells expressing wild type EZH2; test: H3K27me3 MSD Hela Assay; assay type: cell-based; conditions: Homo sapiens, HeLa, 96 h, read-out: H3K27me3_MSD_HeLa (EC50)
Protocol: H3K27me3 MSD Hela Assay. Trypsinized HeLa cells were counted and diluted in 10% DMEM (Life Technologies, Cat. #10569) to 5000 cells/75 μL. Seventy-five μL of cells were place in each well of a 96-well flat-bottomed plate and incubated at 37° C. for 4 hours. Twenty-five μL of test compound (at various concentrations) was added to the cells and incubation continued at 37° C. for 96 hours. Media was then removed and the cells rinsed once with ice cold PBS. Forty μL of ice-cold MSD Buffer AT (10 mM HEPES, pH 7.9, 5 mM MgCl2, 0.25M sucrose, Benzonase (1:10000), 1% Triton X-100 supplemented with fresh 1× Protease Inhibitor cocktail and 1 mM 4-(2-Aminoethyl)benzenesulfonyl fluoride hydrochloride (AEBSF)) was added to each well and the plates placed on ice for 30 minutes. Ten μL of 5M NaCl was then added to each well and incubation on ice continued for another 15 minutes. The material in each well was suspended pipetting up and down and then transferred to a new 96 well plate. The emptied wells were rinsed with 150 uL ice-cold 20 mM Tris pH 7.5, 1 mM EDTA, 1 mM EGTA, supplemented with fresh 1× Protease Inhibitor cocktail and 1 mM AEBSF (“NO salt NO detergent buffer) and transferred to the respective wells in the new plate. Three hundred μL of NO Salt NO detergent buffer was then added to each well of lysates and the plates frozen at −80° C.
On the same day, an appropriate number of MSD standard bind 96-well plates were coated with 30 μL/well of total H3 capture antibody (Millipore, Cat # MAB3422) at 1 μg/mL concentration in PBS. The antibody solution was evenly distributed first by tapping gently on the sides of the plates and then by shaking the plates for a few minutes at 1000 rpm. Antibody coated plates were stored at 4° C. overnight.
The next day the lysates are thawed to RT. The antibody coated MSD plates are washed 3× with TBS-T (Tris-buffered saline (Fisher Scientific, Cat #BP2471-1)+0.2% Tween-20). One-hundred fifty μL of 5% Blocker A in TBS-T is added to each well. The wells are covered and shaken on a shaker at RT for one hour. The Blocker A step is repeated a second time. After removing the blocker, 25 μL of cell lysate is transferred into each antibody coated well. The plates are shaken for 2 hours at RT, the lysate removed and the plates again washed with Blocker A in TBS-T. Twenty-five μL of appropriate freshly prepared antibody mix (including both primary and secondary antibodies) is added to each well and the plates shaken for 1 hour at RT.
Both H3 antibodies were obtained from Cell Signalling (Cat #s 4499 and 9733). The goat anti-rabbit antibody was obtained from Meso-Scale Discovery (Cat #R32AB-1).
The antibody mix was then removed and the wells washed with Blocker A. One hundred-fifty μL of freshly prepared 1×MSD Read Buffer (Meso-Scale Discovery; Cat #R927C-2) was then added to each well and the plates read on a MSD Sector 2400 Plate Reader.
Data was analyzed using Assay Assistant (Constellation Pharmaceuticals In-house product) and Activity Base (IDBS Ltd, Surrey, UK) template. Data files were imported to Assay Assistant and assay conditions were specified. A unique Analysis ID was created and the data files exported to Activity Base. An analysis template was created on Activity Base to measure dose-dependent inhibition of H3K27me3 mark and cell viability respectively. Readout of DMSO wells were used to normalize the data. Resulting curves were fitted using Activity base software Model 205 (IDBS Ltd, Surrey, UK). The data was checked for quality, validated and integrated in excel format using SARview (IDBS Ltd, Surrey, UK).

Y641N EZH2, sequence (Q15910 whole entry Y641N): as the sequence (Q15910 whole entry) above, with Y641N counted along it
Y641N EZH2, sequence (O75530 whole entry partner): as the sequence (O75530 whole entry partner) above
Y641N EZH2, sequence (Q15022 whole entry partner): as the sequence (Q15022 whole entry partner) above

| IC50 (Y641N EZH2) [µM] | IC50 (EZH2) [µM] | EC50 [1] [µM] | SMILES |
| --- | --- | --- | --- |
| 0.1 to 1 | < 0.1 | 2 to 10 | COc1cc(C)[nH]c(=O)c1CNC(=O)c1c(C)c(C(C)c2ccn(C)c(=O)c2)n2ncccc12 (stereo not drawn) [Compound 110, N-((4-methoxy-6-methyl-2-oxo-1,2-dihydropyridin-3-yl)methyl)-6-methyl-7-(1-(1-methyl-2-oxo-1,2-dihydropyridin-4-yl)ethyl)pyrrolo[1,2-b]pyridazine-5-carboxamide] |
| < 0.1 | < 0.1 | < 0.4 | COc1cc(C)[nH]c(=O)c1CNC(=O)c1c(C)c(-c2c(C)noc2C)n2ncccc12 [Compound 114, 7-(3,5-dimethylisoxazol-4-yl)-N-((4-methoxy-6-methyl-2-oxo-1,2-dihydropyridin-3-yl)methyl)-6-methylpyrrolo[1,2-b]pyridazine-5-carboxamide] |
